From PubChem BioAssay (NCI)
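These data come from cells grown in 96-well plates and exposed to compound for 48 hours at five concentrations. TGI denotes the concentration required for complete inhibition of growth.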

Assays:
P388 leukemia = test: NCI tumour cell line growth inhibition, 48 h
SR leukemia = test: NCI tumour cell line growth inhibition, 48 h

Structure (SMILES): CCCCOc1ccc(OCCCCCCCCCC[N+](C)(C)C)cc1
- TGI (P388 leukemia): 3.06 µM

Structure (SMILES): NCCCCNCCCNC(=O)c1nc(-c2nc(CCN)sc2Cl)sc1Cl
- TGI (SR leukemia): > 100 µM
